Experimental data from patent US11000033B2, “Ketone or oxime compound, and herbicide” (NISSAN CHEMICAL CORPORATION, priority 2014, dated 2021).

Legend:
Format in all cases: in vivo
wheat [1] = test: Test Example 5: effect on crop by foliage application, plastic box (symbol e); conditions: 320 g/ha, 3 weeks after application
Procedure, shortened: (§1)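 Greenhouse test at 25° C. to 30° C. Seeds of crops and weeds were spot-sown in boxes of sterilized diluvial soil under roughly 1.5 cm soil cover, then grown for foliage treatment.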

Galium spurium = test: Test Example 4: herbicidal effect by soil treatment (symbol Q); conditions: for Q: Galium spurium, herbicidal effect grade: 320 g/ha
Procedure, shortened: (§2)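 Seeds were sown in sterilized diluvial soil, covered with about 1.5 cm of soil, and the soil surface was sprayed with a water-diluted emulsion of the compound at a predetermined rate. Plants grew in a greenhouse at 25° C. to 30° C.; effects were scored visually 3 weeks after application.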

rapeseed = test: Test Example 4: effect on crop by soil treatment (symbol g); conditions: for g: rapeseed, effect grade on crop: 320 g/ha
Procedure, shortened: (§3)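 The test used sterilized diluvial soil. Seed was set down in spots and overlaid with about 1.5 cm of soil before growth in a greenhouse kept at 25° C. to 30° C.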

Apera spica-venti = test: Test Example 5: herbicidal effect by foliage application, plastic box (symbol L); conditions: 320 g/ha, 3 weeks after application
Procedure, shortened: (§4)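 Visual herbicidal score, taken three weeks post-application, of seedlings sprayed on the foliage with water-diluted emulsion at a predetermined amount; plants were 14 days old, greenhouse-raised at 25° C. to 30° C.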

Leptochloa chinensis = test: Test Example 3: herbicidal effect by foliage application, Wagner pot (symbol D); conditions: application herbicide amount 320 g/ha
Procedure, shortened: (§5)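 Foliar spray of a water-diluted emulsion at a predetermined herbicide amount, applied to 14-day-old plants. Seedlings were raised in flooded alluvial soil (0.1–0.5 cm water) at 25–30 °C in a greenhouse. Injury was rated after 3 weeks against fixed criteria.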

Cyperus difformis = test: Test Example 3: herbicidal effect by foliage application, Wagner pot (symbol E); conditions: application herbicide amount 320 g/ha
Procedure, shortened: as §5

rice = test: Test Example 4: effect on crop by soil treatment (symbol b); conditions: for b: directly sowed rice plant, effect grade on crop: 320 g/ha
Procedure, shortened: as §3

Chenopodium album [2] = test: Test Example 5: herbicidal effect by foliage application, plastic box (symbol O); conditions: 320 g/ha, 3 weeks after application
Procedure, shortened: as §4

[3] = test system: Echinochloa oryzacola Vasing.; test: Test Example 1: herbicidal activity, application before weed generation in submerged conditions (symbol A); conditions: application herbicide amount 320 g/ha
Procedure, shortened: (§6)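 0–5 visual score, 3 wk post-application. Submerged pots, alluvial soil, water 4 cm; seeds sown mixed, rice at 2.5 leaves transplanted. Emulsion diluted to predetermined dose, applied to water surface at sowing. 25–30 °C greenhouse.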

Stellaria media = test: Test Example 5: herbicidal effect by foliage application, plastic box (symbol P); conditions: 320 g/ha, 3 weeks after application
Procedure, shortened: as §4

rice plant = test: Test Example 5: effect on crop by foliage application, plastic box (symbol b); conditions: 320 g/ha, 3 weeks after application
Procedure, shortened: as §1

Monochoria vaginalis = test: Test Example 1: herbicidal activity, application before weed generation in submerged conditions (symbol C); conditions: application herbicide amount 320 g/ha
Procedure, shortened: as §6

wheat [4] = test: Test Example 4: effect on crop by soil treatment (symbol e); conditions: for e: wheat, effect grade on crop: 320 g/ha
Procedure, shortened: as §3

beet = test: Test Example 4: effect on crop by soil treatment (symbol f); conditions: for f: beet, effect grade on crop: 320 g/ha
Procedure, shortened: as §3

Amaranthus retroflexus = test: Test Example 4: herbicidal effect by soil treatment (symbol N); conditions: for N: Amaranthus retroflexus, herbicidal effect grade: 320 g/ha
Procedure, shortened: as §2

Chenopodium album [5] = test: Test Example 4: herbicidal effect by soil treatment (symbol O); conditions: for O: Chenopodium album, herbicidal effect grade: 320 g/ha
Procedure, shortened: as §2

Lolium multiflorum Lam. = test: Test Example 4: herbicidal effect by soil treatment (symbol K); conditions: for K: Lolium multiflorum Lam., herbicidal effect grade: 320 g/ha
Procedure, shortened: as §2

Abutilon theophrasti = test: Test Example 5: herbicidal effect by foliage application, plastic box (symbol M); conditions: 320 g/ha, 3 weeks after application
Procedure, shortened: as §4

Avena fatua = test: Test Example 5: herbicidal effect by foliage application, plastic box (symbol I); conditions: 320 g/ha, 3 weeks after application
Procedure, shortened: as §4

[6] = application herbicide amount 320 g/ha

| SMILES | e: wheat, effect on crop (criteria 0-5) (wheat [1]) | Q: Galium spurium, herbicidal effect grade (Galium spurium) | g: rapeseed, effect grade on crop (rapeseed) | L: Apera spica-venti, herbicidal effect (criteria 0-5) (Apera spica-venti) | herbicidal effect on D (Leptochloa chinensis), grade 0-5 (Leptochloa chinensis) | herbicidal effect on E, grade 0-5 (Cyperus difformis) | b: directly sowed rice plant, effect grade on crop (rice) | O: Chenopodium album, herbicidal effect (criteria 0-5) (Chenopodium album [2]) | Herbicidal effect grade, A: Echinochloa oryzacola Vasing. [3] | P: Stellaria media, herbicidal effect (criteria 0-5) (Stellaria media) | b: directly sowed rice plant, effect on crop (criteria 0-5) (rice plant) | Herbicidal effect grade, C: Monochoria vaginalis (Monochoria vaginalis) | e: wheat, effect grade on crop (wheat [4]) | f: beet, effect grade on crop (beet) | N: Amaranthus retroflexus, herbicidal effect grade (Amaranthus retroflexus) | O: Chenopodium album, herbicidal effect grade (Chenopodium album [5]) | K: Lolium multiflorum Lam., herbicidal effect grade (Lolium multiflorum Lam.) | M: Abutilon theophrasti, herbicidal effect (criteria 0-5) (Abutilon theophrasti) | I: Avena fatua, herbicidal effect (criteria 0-5) (Avena fatua) | also measured |
| --- | --- | --- | --- | --- | --- | --- | --- | --- | --- | --- | --- | --- | --- | --- | --- | --- | --- | --- | --- | --- |
| CON=C(C)CON=C(C)CC1CC(O)=C(c2c(C)cc(C)cc2C)C1=O (stereo not shown) [1-105] | 5 (Herbicidal ratio of 90% or more (almost completely withered)) | 0 (Herbicidal ratio of 5% or lower (almost no effect)) | 3 (Herbicidal ratio of 40% or higher and lower than 70%) | 5 (Herbicidal ratio of 90% or more (almost completely withered)) | 5 (Herbicidal ratio of 90% or more (almost completely withered)) | 5 (Herbicidal ratio of 90% or more (almost completely withered)) | 5 (Herbicidal ratio of 90% or more (almost completely withered)) | 2 (Herbicidal ratio of 20% or higher and lower than 40%) | 5 (Herbicidal ratio of 90% or more (almost completely withered)) | 1 (Herbicidal ratio of 5% or higher and lower than 20%) | 5 (Herbicidal ratio of 90% or more (almost completely withered)) | 4 (Herbicidal ratio of 70% or higher and lower than 90%) | 3 (Herbicidal ratio of 40% or higher and lower than 70%) | 0 (Herbicidal ratio of 5% or lower (almost no effect)) | 4 (Herbicidal ratio of 70% or higher and lower than 90%) | 0 (Herbicidal ratio of 5% or lower (almost no effect)) | 5 (Herbicidal ratio of 90% or more (almost completely withered)) | 1 (Herbicidal ratio of 5% or higher and lower than 20%) | 5 (Herbicidal ratio of 90% or more (almost completely withered)) |  |
| CC(CC1CC(O)=C(c2c(C)cc(C)cc2C)C1=O)=NOCC(N)=O (stereo not shown) [1-124] | 3 (Herbicidal ratio of 40% or higher and lower than 70%) | 0 (Herbicidal ratio of 5% or lower (almost no effect)) | 0 (Herbicidal ratio of 5% or lower (almost no effect)) | 3 (Herbicidal ratio of 40% or higher and lower than 70%) | 5 (Herbicidal ratio of 90% or more (almost completely withered)) | 0 (Herbicidal ratio of 5% or lower (almost no effect)) | 1 (Herbicidal ratio of 5% or higher and lower than 20%) | 3 (Herbicidal ratio of 40% or higher and lower than 70%) | 1 (Herbicidal ratio of 5% or higher and lower than 20%) | 2 (Herbicidal ratio of 20% or higher and lower than 40%) | 3 (Herbicidal ratio of 40% or higher and lower than 70%) | 0 (Herbicidal ratio of 5% or lower (almost no effect)) | 0 (Herbicidal ratio of 5% or lower (almost no effect)) | 0 (Herbicidal ratio of 5% or lower (almost no effect)) | 0 (Herbicidal ratio of 5% or lower (almost no effect)) | 0 (Herbicidal ratio of 5% or lower (almost no effect)) | 3 (Herbicidal ratio of 40% or higher and lower than 70%) | 0 (Herbicidal ratio of 5% or lower (almost no effect)) | 2 (Herbicidal ratio of 20% or higher and lower than 40%) |  |
| CC(CC1CC(O)=C(c2c(C)cc(C)cc2C)C1=O)=NOCc1ccccc1[N+](=O)[O-] (stereo not shown) [1-119] | 4 (Herbicidal ratio of 70% or higher and lower than 90%) | 0 (Herbicidal ratio of 5% or lower (almost no effect)) | 3 (Herbicidal ratio of 40% or higher and lower than 70%) | 5 (Herbicidal ratio of 90% or more (almost completely withered)) | 4 (Herbicidal ratio of 70% or higher and lower than 90%) | 0 (Herbicidal ratio of 5% or lower (almost no effect)) | 5 (Herbicidal ratio of 90% or more (almost completely withered)) | 3 (Herbicidal ratio of 40% or higher and lower than 70%) | 1 (Herbicidal ratio of 5% or higher and lower than 20%) | 1 (Herbicidal ratio of 5% or higher and lower than 20%) | 5 (Herbicidal ratio of 90% or more (almost completely withered)) | 0 (Herbicidal ratio of 5% or lower (almost no effect)) | 0 (Herbicidal ratio of 5% or lower (almost no effect)) | 0 (Herbicidal ratio of 5% or lower (almost no effect)) | 0 (Herbicidal ratio of 5% or lower (almost no effect)) | 0 (Herbicidal ratio of 5% or lower (almost no effect)) | 5 (Herbicidal ratio of 90% or more (almost completely withered)) | 1 (Herbicidal ratio of 5% or higher and lower than 20%) | 5 (Herbicidal ratio of 90% or more (almost completely withered)) |  |
| CC#Cc1cc(C)c(C2=C(O)CC(CC(=NOCCOC)C(C)C)C2=O)c(C)c1 (stereo not shown) [9-023] |  |  |  |  |  |  |  |  |  |  |  |  |  |  |  |  |  |  |  | e: wheat, effect on crop grade (wheat [1]): 1 (Herbicidal ratio of 5% or higher and lower than 20%); Herbicidal effect grade, Q: Galium spurium (Galium spurium; [6]): 0 (Herbicidal ratio of 5% or lower (almost no effect)); Effect on crop grade, g: rapeseed (rapeseed; [6]): 4 (Herbicidal ratio of 70% or higher and lower than 90%); L: Apera spica-venti, herbicidal effect grade (Apera spica-venti): 5 (Herbicidal ratio of 90% or more (almost completely withered)); D (Leptochloa chinensis) herbicidal effect grade (Leptochloa chinensis; Table 24): 5 (Herbicidal ratio of 90% or more (almost completely withered)); E herbicidal effect grade (Cyperus difformis; Table 24): 5 (Herbicidal ratio of 90% or more (almost completely withered)); Effect on crop grade, b: directly sowed rice plant (rice; [6]): 5 (Herbicidal ratio of 90% or more (almost completely withered)); O: Chenopodium album, herbicidal effect grade (Chenopodium album [2]): 3 (Herbicidal ratio of 40% or higher and lower than 70%); A (Echinochloa oryzacola Vasing.) herbicidal effect grade [3]: 5 (Herbicidal ratio of 90% or more (almost completely withered)); P: Stellaria media, herbicidal effect grade (Stellaria media): 3 (Herbicidal ratio of 40% or higher and lower than 70%); b: directly sowed rice plant, effect on crop grade (rice plant): 5 (Herbicidal ratio of 90% or more (almost completely withered)); C (Monochoria vaginalis) herbicidal effect grade (Monochoria vaginalis): 4 (Herbicidal ratio of 70% or higher and lower than 90%); Effect on crop grade, e: wheat (wheat [4]; [6]): 3 (Herbicidal ratio of 40% or higher and lower than 70%); Effect on crop grade, f: beet (beet; [6]): 0 (Herbicidal ratio of 5% or lower (almost no effect)); Herbicidal effect grade, N: Amaranthus retroflexus (Amaranthus retroflexus; [6]): 5 (Herbicidal ratio of 90% or more (almost completely withered)); Herbicidal effect grade, O: Chenopodium album (Chenopodium album [5]; [6]): 0 (Herbicidal ratio of 5% or lower (almost no effect)); Herbicidal effect grade, K: Lolium multiflorum Lam. (Lolium multiflorum Lam.; [6]): 3 (Herbicidal ratio of 40% or higher and lower than 70%); M: Abutilon theophrasti, herbicidal effect grade (Abutilon theophrasti): 0 (Herbicidal ratio of 5% or lower (almost no effect)); I: Avena fatua, herbicidal effect grade (Avena fatua): 4 (Herbicidal ratio of 70% or higher and lower than 90%) |
